Measured values from article PMC6421848 (European journal of medicinal chemistry, 2018).

Legend:
[1] = system: HeLaS3 cells; test: SRB antiproliferation assay, HeLaS3; details: read-out: IC50 HeLaS3, 72 h, mean ± SD of three experiments
[2] = system: HeLaS3 cells; test: ROS generation, HeLaS3; format: cell-based, human; details: HeLaS3, 24 h treatment
[3] = system: HeLaS3 cells; test: Mitochondrial membrane potential assay, HeLaS3; format: cell-based, human; details: HeLaS3, 24 h treatment
[4] = system: KB-vin cells; test: ROS generation, KB-vin; format: cell-based, human; details: 24 h treatment
[5] = system: KB-vin cells; test: Mitochondrial membrane potential assay, KB-vin; format: cell-based, human; details: 24 h treatment
[6] = molecular target: T1, NQO1 (Homo sapiens, UniProt P15559); test: NQO1 activity assay kit in treated HeLaS3 cells; details: HeLaS3, 24 h, serial concentrations
T1 sequence (P15559 whole entry): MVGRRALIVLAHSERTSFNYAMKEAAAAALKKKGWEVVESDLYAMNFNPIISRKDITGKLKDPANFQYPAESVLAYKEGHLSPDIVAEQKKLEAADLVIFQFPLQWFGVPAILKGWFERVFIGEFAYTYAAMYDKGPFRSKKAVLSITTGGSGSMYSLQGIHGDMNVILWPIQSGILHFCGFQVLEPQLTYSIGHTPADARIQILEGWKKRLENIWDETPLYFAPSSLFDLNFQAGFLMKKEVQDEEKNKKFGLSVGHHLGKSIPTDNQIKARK

[7] = molecular target: T1, NQO1; test: NQO1 activity assay kit in treated KB-vin cells; details: 24 h, serial concentrations
[8] = system: HeLaS3 cells; test: NQO1-dependent cytotoxicity; details: HeLaS3, SRB, 72 h
[9] = system: HeLaS3 cells; test: MTT proliferation assay, HeLaS3; format: cell-based, human; details: increasing doses, 72 h
[10] = system: KB-vin cells; test: NQO1-dependent cytotoxicity; details: SRB, 72 h
[11] = system: HeLaS3 cells; test: Western blot of apoptotic proteins; format: cell-based, human; details: HeLaS3, 72 h
[12] = molecular target: T1, NQO1; test: NQO1 inhibitory kinetic assay; format: biochemical
[13] = system: normal endometrial epithelial cells (EECs); test: MTT proliferation assay, normal endometrial epithelial cells; format: cell-based; details: increasing doses, 72 h

| Molecule | IC50 [1] | NQO1 activity after treatment [6] | NQO1 activity after treatment [7] | ROS production [2] | mitochondrial membrane potential [3] | ROS production [4] | mitochondrial membrane potential [5] | also measured |
| --- | --- | --- | --- | --- | --- | --- | --- | --- |
| 6-((4-([1,4’ -Bipiperidin]-1’ -yl)phenyl)amino)quinoline-5,8-dione [Compound 6f] | 5.16 µM | – | – | – | – | – | – | – |
| CN1CCN(c2ccc(NC3=CC(=O)c4ncccc4C3=O)cc2)CC1 [Compound 6d, 6-((4-(4-Methylpiperazin-1-yl)phenyl)amino)quinoline-5,8-dione] | – | – | – | increased dose-dependently | significantly decreased in a dose-dependent manner | increased dose-dependently | significantly decreased in a dose-dependent manner | – |
| COC(=O)/C=C/c1cccc(CNC2=CC(=O)c3ncccc3C2=O)c1 [Compound 6h, (E)-Methyl 3-(3-(((5,8-dioxo-5,8-dihydroquinolin-6-yl)amino)methyl)phenyl)acrylate] | – | inhibited dose-dependently | inhibited dose-dependently | increased dose-dependently | significantly decreased in a dose-dependent manner | increased dose-dependently | significantly decreased in a dose-dependent manner | – |
| CN1CCN(c2ccc(NC3=CC(=O)c4cccnc4C3=O)cc2)CC1 [Compound 7d, 7-((4-(4-Methylpiperazin-1-yl)phenyl)amino)quinoline-5,8-dione] | – | inhibited dose-dependently | inhibited dose-dependently | increased dose-dependently | significantly decreased in a dose-dependent manner | increased dose-dependently | significantly decreased in a dose-dependent manner | cell viability of compound-treated cells on addition of DIC and NAc [8]: significantly increased; effect on HeLaS3 cells, same treatment regimen [9]: induced major HeLaS3 cell death; cell viability of compound-treated cells on addition of DIC and NAc [10]: significantly increased; cleavage of caspase-3 [11]: induced more cleavage of caspase-3 than the control group; levels of anti-apoptotic Bcl-2 expression ([11]; dose-dependent): reduced; relative levels of pro-apoptotic Bax expression ([11]; dose-dependent): dramatically increased; mode of NQO1 inhibition ([12]; Lineweaver-Burk plots): competitive inhibitors; maximum rate (Vmax) ([12]; remained the same as inhibitor concentration increased): 11.03 ± 1.5 nmol/mg protein/20s; effect on survival of non-tumor EECs [13]: no significant effect |

Now from value to molecule, other results behind:

| IC50 [1] | NQO1 activity after treatment [6] | NQO1 activity after treatment [7] | Molecule | ROS production [2] | mitochondrial membrane potential [3] | ROS production [4] | mitochondrial membrane potential [5] | also measured |
| --- | --- | --- | --- | --- | --- | --- | --- | --- |
| 5.07 ± 0.1 µM | – | – | 7-((4-([1,4’ -Bipiperidin]-1’ -yl)phenyl)amino)quinoline-5,8-dione [Compound 7f] | – | – | – | – | – |
| – | inhibited dose-dependently | inhibited dose-dependently | O=C1C=C(NCCc2c[nH]c3ccccc23)C(=O)c2ncccc21 [Compound 7a, 7-((2-(1H-Indol-3-yl)ethyl)amino)quinoline-5,8-dione] | increased dose-dependently | significantly decreased in a dose-dependent manner | increased dose-dependently | significantly decreased in a dose-dependent manner | – |
